Reference: article PMC7407491, “The Addition of a Synthetic LPS-Targeting Domain Improves Serum Stability While Maintaining Antimicrobial, Antibiofilm, and Cell Stimulating Properties of an Antimicrobial Peptide” (Biomolecules, 2020)
Converted amounts (≈) assume the structure as drawn. Bridge positions count the residues as written; N and C are the ends. Peptide text beside a SMILES is read from it.

Tests used:
Escherichia coli = assay type: cell-based; conditions: 2 h, pH 7
Description: (§1) Veterinary clinical isolates, including Salmonella typhimurium, multi-drug resistant Escherichia coli, methicillin-resistant Staphylococcus aureus (MRSA), and methicillin-resistant Staphylococcus pseudointermedius (MRSP), were kindly provided by Dr. H. Cai (Department of Pathobiology, University of Guelph, ON, Canada). An antibiogram for these strains is available in the supplementary text (Table S1). Gram-negative strains were cultured in Luria−Bertani (LB) broth. Gram-positive strains were cultured in Tryptic soy broth (TSB). Both cultures were grown under aerobic conditions at 37 °C.
(§2) The minimum bactericidal concentration (MBC) of SynPG-1 against the tested pathogens was identified through a broth macrodilution antimicrobial assay as previously described, with some modification. […] The buffer volume was adjusted to accommodate the addition of SynPG-1 and PG-1 so that the final solution volume was 0.5 mL for each tested concentration. Final peptide concentrations ranged from 0.1 µg/mL to 8 µg/mL. PG-1 at the known MBC (2 µg/mL E. coli; 4 µg/mL S. typhimurium; 0.5 µg/mL MRSP; 0.5 µg/mL MRSA) was considered the in-house positive control, while the suspension containing no peptide was considered the negative control. Experimental and control tubes were incubated for 2 h at 37 °C without shaking to allow for bactericidal action to occur. […] Colony numbers from each plate were recorded. […]

MRSP = assay type: cell-based, Methicillin-resistant Staphylococcus pseudointermedius; conditions: 2 h, pH 7
Description: as §1, §2

[1] = Activity after incubation in serum (functional serum stability); assay type: in vitro ADME, pig
Description: To compare serum stability, a similar procedure was utilized, as described in Dong et al., with some modification. Briefly, a solution of 25% pig serum was made by diluting fresh pig serum with phosphate buffer saline (PBS). […] Suspension containing no peptide was considered the negative control. Experimental and control tubes were incubated for up to 7 or 24 h in 37 °C to allow for serum constituent interaction with the peptide. […] Experimental and control tubes were incubated for 2 h at 37 °C without shaking to allow for bactericidal action to occur. […] This experiment was carried out three independent times. […] On the other hand, SynPG-1 maintained strong antimicrobial activity even after 24 h of incubation in serum, indicated through a consistently low mean % growth, as compared to the controls seen in Figure 2b. […] All experiments were conducted three independent times. […] Data represent the mean ± SEM of three experiments. The asterisk represents p < 0.05 when compared with SynPG-1 by two-way ANOVA with a post hoc Tukey test.

MRSA biofilm = assay: Biofilm inhibition assay, crystal violet; assay type: cell-based, Methicillin-resistant Staphylococcus aureus; conditions: minimal salt media, 48 h 37 °C static, crystal violet OD 590 nm; p < 0.05 vs control; concentration dependent
Description: Plates were placed in a static incubator at 37 °C for 48 h; the time required for untreated wells to form biofilm. After incubation, treated media was removed and wells were rinsed with 155 µL of PBS to remove planktonic cells. After sufficient air drying of wells, 150 µL of 0.1% Crystal violet stain was added to each well and incubated at room temperature for 30 min, after which, dye was removed and wells were rinsed again with 155 µL of PBS. After sufficient drying of wells, 150 µL of 70% ethanol solution was added to each well and incubated at room temperature for 30 min. After 30 min, 100 µL of each well was added to a new 96-well plate and absorbance was measured at an OD of 590 nm.

S. typhimurium biofilm = assay: Enumeration of viable cells after biofilm inhibition; assay type: cell-based, Salmonella typhimurium; conditions: 4 µg/mL, 48 h biofilm formation, CFU plated
Description: In order to investigate whether prevention or degradation of biofilm by peptide treatment impacted bacterial cell growth within the biofilm, an enumeration assay was carried out. The following protocol was developed using methods described in the work by Wilson et al.. Briefly, in separate 15 mL culture tubes, 20 µL of overnight culture of either E. coli, S. typhimurium, or MRSA were added to 1 mL of minimal salt media (40 mM […]; 22 mM KH2PO4; […] NH4CL; 740 mM NaCl; 2 mM MgSO4; 0.1 mM CaCl2; 22 mM supplemented with D-Glucose) and treated with PG-1 or SynPG-1. Due to the laborious procedure, the study was limited to measuring cell viability for only two concentrations, basing the choice on the highest significant reduction of biomass from crystal violet staining for each strain. […] These concentrations were chosen for the enumeration assay. In instances where no substantial reduction was seen, as in the case of E. coli, the highest tested biomass concentration, or higher, was chosen to confirm the lack of activity on viability. […] Tubes were placed in a static incubator at 37 °C for 48 h; the time required for untreated wells to form biofilm. After 48 h, treated media was removed and wells were rinsed with 1 mL of PBS to remove planktonic cells. […] CFU was recorded. […]

[2] = 25% porcine intestinal fluid (pH 6.5) in PBS, 1 mg/mL peptide, 1 h 37 °C with shaking; residual activity vs E. coli at 20 µg/mL, colony count; three independent experiments
Description: Porcine digestive fluids were collected, as previously described by Wang et al. [44]. […] The gastrointestinal tract was kept at 4 °C during dissection, and collection of contents from the stomach and upper small intestine (duodenum and jejunum) was conducted within 5 h of sacrifice. Contents were centrifuged at 10,000 rpm (9600× g) for 10 min at 4 °C, and supernatant fluid was collected and stored at −80 °C until its use in the stability experiment. The pH of the collected supernatants were 3.5 and 6.5 for gastric fluid and duodenum fluid, respectively.
Procedures similar to those used by Egger et al. [45] were used for this experiment. […] Suspension containing no peptide was considered the negative control. After incubation, 10 µL of the incubated solutions was added for a total volume of 0.5 mL, consisting of 20 µL of mid-logarithmic phase E. coli cells, diluted to a concentration of about 1 × 10^5 CFU/mL, and 470 µL of 20 mM sodium phosphate buffer (pH 7). […] Stability in porcine digestive fluid was evaluated as the relative colony growth on plates from bacterial grown with digestive fluid and peptide treatments, in comparison to plates grown from bacteria grown with digestive fluid alone.
Stability was evaluated by comparing the mean growth of colonies on plates treated with peptides incubated in digestive fluids to colonies grown when treated without peptide. […]

With `CC[C@H](C)[C@H](NC(=O)[C@H](CCCCN)NC(=O)[C@H](CCCNC(=N)N)NC(=O)[C@H](CC(C)C)NC(=O)[C@H](CC(C)C)NC(=O)[C@H](CCCNC(=N)N)NC(=O)[C@H](CCCNC(=N)N)NC(=O)[C@H](CC(C)C)NC(=O)CN)C(=O)N[C@@H](CCCNC(=N)N)C(=O)NCC(=O)N[C@@H](CCCNC(=N)N)C(=O)N[C@@H](Cc1c[nH]c2ccccc12)C(=O)N[C@@H](CCCCN)C(=O)NCC(=O)NCC(=O)NCC(=O)N[C@@H](CCCNC(=N)N)C(=O)NCC(=O)NCC(=O)N[C@@H](CCCNC(=N)N)C(=O)N[C@@H](CC(C)C)C(=O)N[C@H]1CSSC[C@@H](C(=O)N[C@H](C(=O)NCC(=O)N[C@@H](CCCNC(=N)N)C(=O)O)C(C)C)NC(=O)[C@H](C(C)C)NC(=O)[C@@H]2CSSC[C@H](NC(=O)[C@H](Cc3ccc(O)cc3)NC1=O)C(=O)N[C@@H](CCCNC(=N)N)C(=O)N[C@@H](CCCNC(=N)N)C(=O)N[C@@H](CCCNC(=N)N)C(=O)N[C@@H](Cc1ccccc1)C(=O)N2` [SynPG-1, Syn-Protegrin-1] (H-GLRRLLRKIRGRWKGGGRGGRLCYCRRRFCVCVGR-OH; disulfide 23-32, 25-30; N-terminus and C-terminus assumed) as the compound, how does the MBC (Escherichia coli) read?
Its MBC is 2 µg/mL (≈ 0.486 µM).

And the MBC (MRSP)?
Its MBC is 0.5 (0.09) μg/mL.

And the “Time of incubation in 25% serum for which antimicrobial activity is maintained” value [1]?
The value was no more than 24 h.

What about the “Increase in stability in 25% serum versus PG-1” value ([1]; 24 h versus 2 h of retained activity in 25% serum) of the same compound?
The value was 12 fold.

And the “Concentration at which inhibition of biofilm formation was seen” value (MRSA biofilm)?
The value was 2 µg/mL.

What about the “Reduction of mean % growth of control compared with PG-1” value (S. typhimurium biofilm) of the same compound?
Its value is “significantly lower reduction of mean % growth of control”.

What about the “Antimicrobial activity after incubation in 25% porcine intestinal fluid” value [2] of the same compound?
Its value is “mean % growth of control increased”.
